The values below come from patent US8394809B2, “Phenoxy-substituted pyrimidines as opioid receptor modulators” (priority 2009, dated 2013).

Read-outs that look alike come from different tables or passages of the source. Some results are limits rather than exact numbers.

One assay deals with T1, mu opioid receptor (Rattus norvegicus, UniProt P33535).
T1 construct: the forebrains were homogenized in Tris buffer in a Teflon®-glass homogenizer; from tissue; host or cells: forebrain of male Wistar rats, particulate membrane preparation
In words: Rat brain mu opioid receptor binding assay. To be noted: rat forebrain membranes, ~0.8 nM [3H]DAMGO; read-out: μ-binding Ki. As to the method:
(§1) Procedure: Male, Wistar rats (150-250 g, VAF, Charles River, Kingston, N.Y.) were killed by CO2, and their brains were removed and placed immediately in ice cold Tris HCl buffer (50 mM, pH 7.4). The forebrains were separated from the remainder of the brain by a coronal transection, beginning dorsally at the colliculi and passing ventrally through the midbrain-pontine junction. After dissection, the forebrains were homogenized in Tris buffer in a Teflon®-glass homogenizer. The homogenate was diluted to a concentration of 1 g of forebrain tissue per 80 mL Tris and centrifuged at 39,000×g for 10 min. The pellet was resuspended in the same volume of Tris buffer containing 5 mM MgCl2 with several brief pulses from a Polytron homogenizer. This particulate preparation was used for the mu opioid binding assays. Following incubation with the mu selective peptide ligand, ˜0.8 nM [^3H]DAMGO, at 25° C. for 2.5 h in a 96-well plate with total assay volume of 1 mL, the plate contents were filtered through Wallac filtermat B sheets on a Tomtec 96-well harvester. […] To each sample area 2×40 μL of Betaplate Scint scintillation fluid (LKB) was added and the radioactivity was quantifed on a LKB (Wallac) 1205 BetaPlate liquid scintillation counter.
(§2) Analysis: The data from the scintillation counter was used to calculate either the % inhibition compared to control binding (when only a single concentration of test compound was evaluated) or a Ki value (when a range of concentrations was tested). Percent inhibition was calculated as: [(total dpm−test compound dpm)/(total dpm-nonspecific dpm)]*100. Kd and Ki values were calculated using GraphPad PRISM data analysis program.

The target in assay [1] is T2, delta opioid receptor (Rattus norvegicus, UniProt P33533).
T2 construct: the forebrains were homogenized in Tris buffer in a Teflon®-glass homogenizer; from tissue; host or cells: forebrain of male Wistar rats, particulate membrane preparation
As to the kind of experiment: Rat brain delta opioid receptor binding assay. To be noted: rat forebrain membranes. As to the method: as §1, with “delta” for “mu”, “ligand ˜4” for “ligand, ˜0.8”, “[^3H]DPDPE or 0.25 nM [^3H]naltrindole” for “[^3H]DAMGO,”, “total” for “total assay”, “2×50” for “2×40”, “quantified” for “quantifed”
as §2

The target of assay [2] is T3, delta opioid receptor (Mus musculus, UniProt P32300).
T3 construct: NG108-15 cell membranes were purchased from Applied Cell Sciences (Rockville, Md.); host or cells: NG108-15 cell membranes (purchased)
In words: [35S]GTPγS binding assay in NG108-15 cell membranes (delta opioid functional assay). It is filed as biochemical. To be noted: for GTPγS δ-Rel Efficacy @200 nM: 200 nM compound, relative to calculated max of SNC80 dose response. The procedure:
Methods: NG108-15 cell membranes were purchased from Applied Cell Sciences (Rockville, Md.). 5 mg/mL of membrane protein was suspended in 10 mM TRIS-HCl pH 7.2, 2 mM EDTA, 10% sucrose. Membranes were maintained at 4-8° C. A 1 mL volume of membranes was added into 10 mL cold binding assay buffer. The assay buffer contained 50 mM Tris, pH 7.6, 5 mM MgCl2, 100 mM NaCl, 1 mM DTT and 1 mM EGTA. The membrane suspension was homogenized twice with a Polytron, and centrifuged at 3000 rpm for 10 min. The supernatant was then centrifuged at 18,000 rpm for 20 min. Ten mL assay buffer was added into the pellet containing tube. The pellet and buffer were mixed with a Polytron.
Incubation procedure: The pellet membranes (75 μg/mL) were preincubated with SPA (10 mg/mL) at 25° C. for 45 min in the assay buffer. […] 200 nM of receptor agonists was used to stimulate [^35S]-GTPγS binding. The basal binding was tested in the absence of agonists and non-specific binding was tested in the presence of 10 μM unlabeled GTPγS.
Data % of Basal=(stimulated−non specific)*100/(basal−non specific). Relative Efficacy of a compound at 200 nM=(% of Basal of test compound at 200 nM)/(Calculated Max of SNC80 dose response. Curve in prism).

Where [3] appears, read: 0.25 nM [3H]naltrindole, read-out: δ-binding (Naltrindole ligand) Ki.
The mark [4] stands for this setting: ~4 nM [3H]DPDPE, read-out: δ-binding (DPDPE ligand) Ki.

T1 sequence (P33535 whole entry): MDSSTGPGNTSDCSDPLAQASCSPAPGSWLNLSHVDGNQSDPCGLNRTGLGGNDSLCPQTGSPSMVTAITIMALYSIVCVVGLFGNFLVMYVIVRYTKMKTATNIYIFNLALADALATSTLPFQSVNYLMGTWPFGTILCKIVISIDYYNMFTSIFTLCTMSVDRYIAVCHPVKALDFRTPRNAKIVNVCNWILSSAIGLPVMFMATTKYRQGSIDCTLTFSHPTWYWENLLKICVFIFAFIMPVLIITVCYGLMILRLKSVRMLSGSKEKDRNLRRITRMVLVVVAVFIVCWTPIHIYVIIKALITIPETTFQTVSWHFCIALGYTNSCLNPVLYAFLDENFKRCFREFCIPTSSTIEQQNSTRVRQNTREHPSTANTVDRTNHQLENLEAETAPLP
T3 sequence (P32300 whole entry): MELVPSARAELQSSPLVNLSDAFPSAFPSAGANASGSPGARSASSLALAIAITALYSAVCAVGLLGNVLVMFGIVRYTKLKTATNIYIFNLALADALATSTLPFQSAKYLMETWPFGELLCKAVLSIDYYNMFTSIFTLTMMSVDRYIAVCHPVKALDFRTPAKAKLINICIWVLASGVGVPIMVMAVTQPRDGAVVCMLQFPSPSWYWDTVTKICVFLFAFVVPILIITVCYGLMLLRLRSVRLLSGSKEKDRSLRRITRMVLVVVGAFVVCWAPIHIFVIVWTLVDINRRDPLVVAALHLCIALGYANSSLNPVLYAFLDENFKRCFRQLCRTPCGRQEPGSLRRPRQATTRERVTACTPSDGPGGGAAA
T2 sequence (P33533 whole entry): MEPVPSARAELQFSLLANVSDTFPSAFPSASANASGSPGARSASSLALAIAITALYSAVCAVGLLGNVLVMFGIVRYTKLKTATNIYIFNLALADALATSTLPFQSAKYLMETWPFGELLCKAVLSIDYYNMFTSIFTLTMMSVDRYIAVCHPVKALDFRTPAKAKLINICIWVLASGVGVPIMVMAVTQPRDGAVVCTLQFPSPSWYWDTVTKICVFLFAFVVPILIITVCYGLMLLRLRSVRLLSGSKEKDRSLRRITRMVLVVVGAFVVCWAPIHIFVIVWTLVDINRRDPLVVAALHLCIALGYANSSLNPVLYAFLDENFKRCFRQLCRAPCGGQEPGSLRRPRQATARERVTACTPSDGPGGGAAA

As usually defined, the Ki is the equilibrium dissociation constant of an inhibitor or competing ligand from its target. Turning to `COc1ccc(Oc2ncc(NC3CCNCC3)c(Oc3ccc(OC)cc3)n2)cc1` [Cpd 12], the Ki was found to be 15200 nM on mu opioid receptor and 174 nM at delta opioid receptor [1] (setting [3]).

As usually defined, the EC50 is the concentration at which the effect is half-maximal. With `COc1ccc(Oc2nc(Oc3cccc(C#N)c3)ncc2NC[C@@H]2CCCN2)cc1` [Cpd 53], on delta opioid receptor [2], the “GTPγS δ-opioid receptor Rel Efficacy” value is 1.033 and the “GTPγS δ-Rel Efficacy @200 nM” value is given as 0.705. The EC50 at delta opioid receptor [2] (read-out: GTPγS δ-opioid receptor EC50) came to 53 nM.

As for `COc1ccc(Oc2nc(Nc3cccnc3)ncc2NC[C@@H]2CCCN2)cc1` [Cpd 48], the “GTPγS δ-Rel Efficacy @200 nM” value on delta opioid receptor [2] is listed as 0.267.

`COc1ccc(Oc2nc([S+]([O-])c3ccc(OC)cc3)ncc2NC[C@@H]2CCCN2)cc1` (stereo partly drawn) [Cpd 20, [2-(4-Methoxybenzenesulfinyl)-4-(4-methoxyphenoxy)-pyrimidin-5-yl]-pyrrolidin-2-(S)-ylmethylamine]: the Ki is above 10000 nM at mu opioid receptor and 274 nM at delta opioid receptor [1] (setting [4]).

As for `COc1ccc(Oc2ncc(CNC[C@@H]3CCCN3C)c(Oc3ccc(OC)cc3)n2)cc1` [Cpd 8], the values for the Ki at mu opioid receptor and on delta opioid receptor [1] (setting [3]) were 7160 nM and 92.5 nM, respectively.

For the molecule `COc1ccc(Oc2ncc(NCC3CCNC3)c(Oc3ccc(OC)cc3)n2)cc1` (racemic) [Cpd 22], the values for the inhibitory constant (Ki) at mu opioid receptor and at delta opioid receptor [1] (setting [4]) were 9280 nM and 357 nM, respectively.

Consider `COc1ccc(Oc2ncc(NCCC3CCNCC3)c(Oc3ccc(OC)cc3)n2)cc1` [Cpd 33], for which the Ki was above 10000 nM on mu opioid receptor and 1110 nM on delta opioid receptor [1] (setting [4]).

As to `COc1ccc(Oc2ncc(NCC3CNCCO3)c(Oc3ccc(OC)cc3)n2)cc1` (racemic) [Cpd 31], the Ki on mu opioid receptor was above 10000 nM; at delta opioid receptor [1] (setting [4]), 723 nM.

With `COc1ccc(C=Cc2ncc(NC[C@@H]3CCCN3)c(Oc3ccc(OC)cc3)n2)cc1` [Cpd 19, {4-(4-Methoxyphenoxy)-2-[2-(4-methoxyphenyl)vinyl]-pyrimidin-5-yl}-pyrrolidin-2-(S)-ylmethylamine], the Ki on mu opioid receptor came out at 2050 nM; at delta opioid receptor [1] (setting [4]) it was 232 nM.

As for `COc1ccc(Nc2ncc(NC[C@@H]3CCCN3)c(Oc3ccc(OC)cc3)n2)cc1` [Cpd 23, 4-(4-Methoxyphenoxy)-N^2-(4-methoxyphenyl)-N^6-pyrrolidin-2-(S)-ylmethyl-pyrimidine-2,5-diamine], the Ki is above 10000 nM at mu opioid receptor and 363 nM at delta opioid receptor [1] (setting [4]).

In the case of `COc1ccc(Oc2ncc(NC3CNCCC3c3ccccc3)c(Oc3ccc(OC)cc3)n2)cc1` (stereo not drawn) [Cpd 35], the results for the Ki at mu opioid receptor and at delta opioid receptor [1] (setting [4]) were above 10000 nM and 1430 nM, respectively.

`COc1ccc(Oc2nc(Oc3cc(F)cc(F)c3)ncc2NC[C@@H]2CCCN2)cc1` [Cpd 54]: the “GTPγS δ-Rel Efficacy @200 nM” value on delta opioid receptor [2] is reported as 0.066.

Regarding `CCN(CC)CCC(C)Nc1cnc(Oc2ccc(OC)cc2)nc1Oc1ccc(OC)cc1` (racemic) [Cpd 38], the Ki on mu opioid receptor is above 10000 nM; on delta opioid receptor [1] (setting [3]), 3090 nM.

Take `COc1ccc(Oc2ncc(NCCC3CCCNC3)c(Oc3ccc(OC)cc3)n2)cc1` (racemic) [Cpd 34]: the inhibition constant Ki on mu opioid receptor was above 10000 nM; on delta opioid receptor [1] (setting [4]), 1120 nM.

With `COc1ccc(Oc2ncc(NCc3ncc[nH]3)c(Oc3ccc(OC)cc3)n2)cc1` [Cpd 42], the figures for the Ki on mu opioid receptor and at delta opioid receptor [1] (setting [4]) were above 10000 nM and 3810 nM, respectively.

On to `COc1ccc(Oc2nc(Nc3cccc(F)c3)ncc2NC[C@@H]2CCCN2)cc1` [Cpd 49, N^2-(3-Fluoro-phenyl)-4-(4-methoxy-phenoxy)-N^5-pyrrolidin-2-(S)-ylmethyl-pyrimidine-2,5-diamine], for which the “GTPγS δ-Rel Efficacy @200 nM” value at delta opioid receptor [2] is recorded as 0.216.

Consider `COc1ccc(Oc2ncc(NCC3CNC3)c(Oc3ccc(OC)cc3)n2)cc1` [Cpd 13], for which the inhibitory constant (Ki) at mu opioid receptor was above 10000 nM; at delta opioid receptor [1] (setting [3]), 238 nM.

In the case of `COc1ccc(Oc2ncc(NCc3ccncc3)c(Oc3ccc(OC)cc3)n2)cc1` [Cpd 39], the results for the inhibition constant (Ki) at mu opioid receptor and at delta opioid receptor [1] (setting [3]) were above 10000 nM and 3530 nM, respectively.

Take `COc1ccc(Oc2ncc(NC[C@H](N)CO)c(Oc3ccc(OC)cc3)n2)cc1` [Cpd 21, 2-(S)-Amino-3-[2,4-bis-(4-methoxy-phenoxy)-pyrimidin-5-ylamino]propan-1-ol]: the Ki at mu opioid receptor is above 10000 nM; at delta opioid receptor [1] (setting [4]), 348 nM.

For `COc1ccc(Oc2ncc(NCc3nccs3)c(Oc3ccc(OC)cc3)n2)cc1` [Cpd 43], the Ki at mu opioid receptor was above 10000 nM; on delta opioid receptor [1] (setting [4]) it was 4220 nM.

In the case of `COc1ccc(Oc2ncc(NC3CCCN(Cc4ccccc4)C3)c(Oc3ccc(OC)cc3)n2)cc1` (racemic) [Cpd 32], the Ki is above 10000 nM at mu opioid receptor and 876 nM on delta opioid receptor [1] (setting [4]).

Take `COc1ccc(Oc2ncc(NC3CC4CCC(C3)N4)c(Oc3ccc(OC)cc3)n2)cc1` (stereo not drawn) [Cpd 11]: the Ki on mu opioid receptor was determined as 2150 nM; at delta opioid receptor [1] (setting [3]) it was 155 nM.

Regarding `COc1ccc(Oc2ncc(NC3CCNC3)c(Oc3ccc(OC)cc3)n2)cc1` (racemic) [Cpd 36], the Ki at mu opioid receptor is above 10000 nM; on delta opioid receptor [1] (setting [3]) it was 2140 nM.

`COc1ccc(Oc2ncc(NCc3ccc(-n4ccnc4)cc3)c(Oc3ccc(OC)cc3)n2)cc1` [Cpd 37, [2,4-Bis-(4-methoxy-phenoxy)-pyrimidin-5-yl]-(4-imidazol-1-yl-benzyl)-amine]: the Ki is above 10000 nM on mu opioid receptor and 2700 nM on delta opioid receptor [1] (setting [3]).

On to `COc1ccc(Oc2ncc(NC3CCN(Cc4ccccc4)C3)c(Oc3ccc(OC)cc3)n2)cc1` (racemic) [Cpd 27, (1-Benzyl-pyrrolidin-3-yl)-[2,4-bis-(4-methoxy-phenoxy)-pyrimidin-5-yl]-amine], for which the values for the Ki at mu opioid receptor and at delta opioid receptor [1] (setting [3]) were 3570 nM and 1020 nM, respectively.

With `COc1ccc(Oc2ncc(NCC3CCNCC3)c(Oc3ccc(OC)cc3)n2)cc1` [Cpd 17], the Ki at mu opioid receptor was 12300 nM; at delta opioid receptor [1] (setting [3]), 477 nM.

For `COc1ccc(Oc2ncc(NC[C@@H]3CCCN3C)c(Oc3ccc(OC)cc3)n2)cc1` [Cpd 9, [2,4-Bis-(4-methoxy-phenoxy)-pyrimidin-5-yl]-(1-methyl-pyrrolidin-2-(S)-ylmethyl)-amine], the Ki is 9290 nM at mu opioid receptor and 115 nM at delta opioid receptor [1] (setting [3]).

On to `COc1ccc(Oc2ncc(NCC3CCCCN3)c(Oc3ccc(OC)cc3)n2)cc1` (racemic) [Cpd 25], for which the Ki at mu opioid receptor worked out at 2510 nM; at delta opioid receptor [1] (setting [4]), 489 nM.

Turning to `COc1ccc(Oc2ncc(NC[C@@H](N)CO)c(Oc3ccc(OC)cc3)n2)cc1` [Cpd 10], the Ki on mu opioid receptor was above 10000 nM; at delta opioid receptor [1] (setting [3]), 130 nM.

Regarding `COc1ccc(Oc2ncc(NC3CCC(N)CC3)c(Oc3ccc(OC)cc3)n2)cc1` (stereo not drawn) [Cpd 16], the Ki came out at 3860 nM at mu opioid receptor and 455 nM on delta opioid receptor [1] (setting [3]).

For the molecule `COc1ccc(Oc2ncc(NCC3CCCNC3)c(Oc3ccc(OC)cc3)n2)cc1` (racemic) [Cpd 15], the Ki at mu opioid receptor came out at 3240 nM; on delta opioid receptor [1] (setting [3]) it was 297 nM.

For the molecule `COc1ccc(Oc2ncc(NC3CCN(C(C)=O)CC3)c(Oc3ccc(OC)cc3)n2)cc1` [Cpd 41], the Ki is above 10000 nM at mu opioid receptor and 5320 nM at delta opioid receptor [1] (setting [3]).

In the case of `COc1ccc(Oc2ncc(NC(C)c3ccncc3)c(Oc3ccc(OC)cc3)n2)cc1` (racemic) [Cpd 40], the values for the Ki at mu opioid receptor and on delta opioid receptor [1] (setting [3]) were above 10000 nM and 4370 nM, respectively.

For `Fc1ccc(Oc2ncc(NCC3CCCN3)c(Oc3ccc(F)cc3)n2)cc1` (stereo not drawn) [Cpd 24], the Ki on mu opioid receptor is above 10000 nM; at delta opioid receptor [1] (setting [4]), 396 nM.
